Test results reported in patent US11415579B2, “Assay for measuring a rate of reaction between a target and a ligand candidate” (Imperial College Innovations Ltd., priority 2016, dated 2022).

Assays:
[1] = molecular target: T1, Cdk2(T182C) (C177A) (Homo sapiens, UniProt P24941, C177A/T182C); experiment: Kinetic thiol consumption assay with Cdk2 mutant T182C; type: binding; parameters: key to Rate enhancement, Cdk2 T182C: rate constant with Cdk2 ÷ rate constant with model thiol (fold); settings: additional mutation C177A; for Rate constant with Cdk2 T182C: Protein: Cdk2, cysteine position T182C, in h^-1
T1 construct: poly-histidine; made in house; host or cells: E. coli
Outline: (§1)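 Thiol consumption was monitored kinetically using 5 μM Cdk2 (C177A plus one introduced cysteine) in degassed phosphate buffer at pH 8 with TCEP beads. Plates were kept 1 h at room temperature before fluorescence reading, and rate constants came from exponential decay fitting.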

[2] = Kinetic thiol consumption assay with model thiol glutathione; type: physicochemical; parameters: Rate constant with glutathione (k(GSH)): unit not given here; settings: for Rate constant with glutathione (k(GSH)): 500 μM ligand, 5 μM thiol, phosphate buffer pH 8; for Rate constant with Glutathione: Protein: Glutathione, cysteine position NA, in h-1
Outline: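 Rate constants for acrylamide reaction with 5 μM glutathione come from first-order exponential fits of normalized fluorescence decay (ex 380, em 470 nm). Reactions run in degassed phosphate buffer at pH 8 containing TCEP beads, room temperature.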

[3] = molecular target: T2, Cdk2(N272C) (C177A) (Homo sapiens, UniProt P24941, C177A/N272C); experiment: Kinetic thiol consumption assay with Cdk2 mutant N272C; type: binding; parameters: key to Rate enhancement, Cdk2 N272: rate constant with Cdk2 ÷ rate constant with model thiol (fold); settings: for Rate enhancement, Cdk2 N272: Cdk2 N272, additional mutation C177A; for Rate constant with Cdk2 N272C: Protein: Cdk2, cysteine position N272C, additional mutation C177A, in h^-1
T2 construct: poly-histidine; made in house; host or cells: E. coli
Outline: as §1

[4] = molecular target: T3, human cyclin-dependent kinase 2 (Cdk2) (Homo sapiens, UniProt P24941); experiment: Kinetic thiol consumption assay with wild type Cdk2 (C177); type: binding; parameters: key to Rate enhancement, Cdk2 WT: k(Cdk2) divided by k(model thiol); Rate constant with Cdk2 (k(Cdk2)): unit not given here; settings: for Rate constant with Cdk2 (k(Cdk2)): 500 μM ligand, 5 μM thiol, phosphate buffer pH 8; for Rate enhancement, Cdk2 WT: no additional mutations; for Rate constant with Cdk2 WT: Protein: Cdk2, cysteine position WT, in h^-1; for k(Cdk2)/k(Cdk2_mut) rate enhancement: model thiol Cdk2[C177A, F80C, K278C]; for k(Cdk2)/k(GSH) rate enhancement: model thiol glutathione
T3 construct: poly-histidine; made in house; host or cells: E. coli
Outline: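 Rate constants came from first-order exponential decay fits of normalized fluorescence against time, with thiol (5 μM) in degassed pH 8 phosphate buffer containing 2% v/v TCEP beads and reads after 1 h at room temperature.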

[5] = molecular target: T4, Cdk2[C177A, F80C, K278C] (Homo sapiens, UniProt P24941, C177A/F80C/K278C); experiment: Kinetic thiol consumption assay with mutant Cdk2 as model thiol; type: binding; parameters: unit not given here; settings: 500 μM ligand, 5 μM thiol, phosphate buffer pH 8
T4 construct: poly-histidine; made in house; host or cells: E. coli
Description: A library of 120 acrylamides was screened against a) human cyclin-dependent kinase 2 (Cdk2, which contains one surface exposed cysteine residue—C177), prepared by cloning cDNA into the pRSETA bacterial expression vector to generate a poly-histidine tagged Cdk2 fusion that was purified from E. coli using standard techniques, and b) a model thiol (specific details are given below). The structures of these 120 acrylamides are set out in Table 1, above.
To wells containing 150 μL thiol (Cdk2 or model thiol) (5 μM) in degassed phosphate buffer (pH 8) was added immobilized TCEP beads (2% v/v).
After incubation of the fluorescence plates for 1 hour at room temperature, fluorescence measurements (excitation/emission of 380/470 nm) were taken on a PerkinElmer EnVision multilabel plate reader and processed with EnVision Workstation version 1.12.
Fluorescence measurements were normalized against a DMSO/thiol only control and plotted against time.
Rate constants were calculated using GraphPad software Prism version 6 by fitting a first order exponential decay to the data. The rate constant for each acrylamide with Cdk2 was divided by the rate constant for that fragment with the model thiol to provide the rate enhancement for each ligand candidate.
The model thiol used in Example 2 is a mutant form of human Cdk2 (C177A, F80C, K278C) which contains two engineered surface exposed cysteine residues. Mutations were introduced by site-directed mutagenesis and the resulting cDNA was cloned into the pRSETA bacterial expression vector to generate a poly-histidine tagged Cdk2 fusion that was purified from E. coli using standard techniques.

[6] = molecular target: T5, Cdk2(R122C) (C177A) (Homo sapiens, UniProt P24941, C177A/R122C); experiment: Kinetic thiol consumption assay with Cdk2 mutant R122C; type: binding; parameters: key to Rate enhancement, Cdk2 R122C: rate constant with Cdk2 ÷ rate constant with model thiol (fold); settings: additional mutation C177A; for Rate constant with Cdk2 R122C: Protein: Cdk2, cysteine position R122C, in h-1
T5 construct: poly-histidine; made in house; host or cells: E. coli
Outline: as §1

[7] = molecular target: T6, Cdk2(C177A, F80C) (Homo sapiens, UniProt P24941, C177A/F80C); experiment: Kinetic thiol consumption assay with Cdk2 mutant F80C, incl. kobs versus concentration (Kd, k2); type: binding; parameters: key to Rate enhancement, Cdk2 F80C: Cdk2 rate constant divided by model-thiol rate constant; settings: additional mutation C177A; for Rate constant with Cdk2 F80C: Protein: Cdk2, cysteine position F80C, in h^-1
T6 construct: poly-histidine; made in house; host or cells: E. coli
Outline: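 His-tagged Cdk2(C177A/F80C) from E. coli or model thiol, 5 μM in degassed phosphate buffer pH 8 with TCEP beads, reacted with acrylamide ligands; fluorescence (ex/em 380/470 nm) normalized to DMSO control and fitted to first-order decay for kobs. Kd and k2 obtained from hyperbolic fit of kobs versus ligand concentration.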

[8] = molecular target: T7, Cdk2(S276C) (C177A) (Homo sapiens, UniProt P24941, C177A/S276C); experiment: Kinetic thiol consumption assay with Cdk2 mutant S276C; type: binding; parameters: key to Rate enhancement, Cdk2 S276C: rate constant with Cdk2 ÷ rate constant with model thiol (fold); settings: additional mutation C177A; for Rate constant with Cdk2 S276C: Protein: Cdk2, cysteine position S276C, in h^-1
T7 construct: poly-histidine; made in house; host or cells: E. coli
Outline: as §1

[9] = molecular target: T8, Cdk2(H71C) (C177A) (Homo sapiens, UniProt P24941, C177A/H71C); experiment: Kinetic thiol consumption assay with Cdk2 mutant H71C; type: binding; parameters: key to Rate enhancement, Cdk2 H71C: rate constant with Cdk2 ÷ rate constant with model thiol (fold); settings: additional mutation C177A; for Rate constant with Cdk2 H71C: Protein: Cdk2, cysteine position H71C, in h^-1
T8 construct: poly-histidine; made in house; host or cells: E. coli
Outline: as §1

[10] = molecular target: T9, Cdk2(S181C) (C177A) (Homo sapiens, UniProt P24941, C177A/S181C); experiment: Kinetic thiol consumption assay with Cdk2 mutant S181C; type: binding; parameters: key to Rate enhancement, Cdk2 S181C: rate constant with Cdk2 ÷ rate constant with model thiol (fold); settings: additional mutation C177A; for Rate constant with Cdk2 S181C: Protein: Cdk2, cysteine position S181C, in h^-1
T9 construct: poly-histidine; made in house; host or cells: E. coli
Outline: as §1

SMILES	Rate enhancement, Cdk2 T182C [1]	Rate constant with Cdk2 T182C [1]	Rate constant with glutathione (k(GSH)) [2]	Rate constant with Glutathione [2]	Rate enhancement, Cdk2 N272 [3]	Rate constant with Cdk2 N272C [3]	Rate constant with Cdk2 (k(Cdk2)) [4]	Rate enhancement, Cdk2 WT [4]	Rate constant with Cdk2 WT [4]	k(Cdk2)/k(Cdk2_mut) rate enhancement [4]	k(Cdk2)/k(GSH) rate enhancement [4]	Rate constant with Cdk2[C177A, F80C, K278C] (k(Cdk2_mut)) [5]	Rate enhancement, Cdk2 R122C [6]	Rate constant with Cdk2 R122C [6]	Rate enhancement, Cdk2 F80C [7]	Rate constant with Cdk2 F80C [7]	Rate enhancement, Cdk2 S276C [8]	Rate constant with Cdk2 S276C [8]	Rate enhancement, Cdk2 H71C [9]	Rate enhancement, Cdk2 S181C [10]	other results
C=CC(=O)NC1(C2CC2)CC1 [CA-047]	1.063	0.01308	0.00756	0.0123	0.1665	0.002048	0.0056	0.4553	0.0056	1.617	0.7407	0.00346	0.2628	0.003233	0.1307	0.001607	0.5464	0.006721	0	0.2766	Rate constant with Cdk2 S181C [10]: 0.003402
C=CC(=O)N1CCc2sccc2C1c1cccs1 (centres unmarked) [CA-056]	18.35	0.3197	0.0174	0.01742	1.548	0.02696	0.02004	1.15	0.02004	0.1472	1.152	0.1361	0.7819	0.01362	4.984	0.08682	1.776	0.03094	1.254	2.069	Rate constant with Cdk2 H71C [9]: 0.02185; Rate constant with Cdk2 S181C [10]: 0.03604
C=CC(=O)N1CCN(S(C)(=O)=O)CC1c1ccccc1 (centres unmarked) [EL-1160]	2	0.05729	0.0286	0.02865	0.5689	0.0163	0.01181	0.4122	0.01181	2.854	0.4129	0.00414	0.2711	0.007767	0.4705	0.01348	0.7682	0.02201	0.9714	0.4684	Rate constant with Cdk2 H71C [9]: 0.02783; Rate constant with Cdk2 S181C [10]: 0.01342
